A word on the IC50: it is the concentration that inhibits the measured activity by half. As usually defined, the inhibition is the share of the control response that was lost under treatment.

For assay [1], the system named is Splenocyte. Briefly: Immunosuppressive activity in BALB/c mouse Splenocyte assessed as reduction in frequency of CD25 positive CD4 positive T cells at 100 to 400 nM incubated for 48 hrs by flow cytometry analysis. The format is functional, cell-based. The note with it: dose 100-400 nM. Background: A flow cytometer gives signals particle by particle.
Assay [2] relates to Splenocyte. Nature of the assay: Immunosuppressive activity in BALB/c mouse Splenocyte assessed as inhibition of concanavalin A induced T-cell proliferation incubated for 48 hrs by [3H]-thymidine incorporation based beta scintillation counter analysis. It is filed as functional. A general note: Uptake of a labelled nucleoside into DNA is a usual measure of proliferation.
In assay [3] the target is T1, Tyrosine-protein kinase ZAP-70 (Homo sapiens, UniProt P43403).
T1 sequence (P43403 whole entry): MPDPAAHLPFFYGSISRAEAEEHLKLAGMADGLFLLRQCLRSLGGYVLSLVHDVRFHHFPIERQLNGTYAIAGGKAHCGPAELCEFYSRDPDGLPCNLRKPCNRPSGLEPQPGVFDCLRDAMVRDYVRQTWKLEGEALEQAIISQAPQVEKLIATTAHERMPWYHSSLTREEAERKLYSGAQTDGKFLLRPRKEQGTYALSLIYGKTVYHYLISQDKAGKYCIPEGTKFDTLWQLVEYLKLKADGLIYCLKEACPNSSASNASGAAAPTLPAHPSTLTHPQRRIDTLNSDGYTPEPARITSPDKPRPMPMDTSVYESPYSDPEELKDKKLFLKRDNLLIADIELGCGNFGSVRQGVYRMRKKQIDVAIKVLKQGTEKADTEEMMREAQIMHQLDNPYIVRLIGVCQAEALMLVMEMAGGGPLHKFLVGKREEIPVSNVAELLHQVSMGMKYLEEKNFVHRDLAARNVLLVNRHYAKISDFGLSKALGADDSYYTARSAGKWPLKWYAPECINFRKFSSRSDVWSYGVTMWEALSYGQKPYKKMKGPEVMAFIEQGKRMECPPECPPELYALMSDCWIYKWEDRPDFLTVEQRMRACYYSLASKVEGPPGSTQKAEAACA
Nature of the assay: Inhibition of ZAP-70 (unknown origin) using ULight-TK peptide as substrate incubated for 120 mins in presence of ATP by Lance Ultra Kinase assay.

Assay [4] has as its target T2, Tyrosine-protein kinase ZAP-70 (Homo sapiens) (UniProt P43403).
T2 sequence (whole entry): T1 sequence (P43403 whole entry)
Briefly: Inhibition of ZAP-70 (unknown origin) at 1 uM relative to control.

For assay [5], the system named is Mus musculus. Briefly: Anti-inflammatory activity in imiquimod-induced BALB/c mouse psoriasis model assessed as reduction in immune cell infiltration at TOP administration, 2 % applied for 7 days by hematoxylin and eosin staining based assay. It is filed as functional, organism-based. The note with it: time 7.0 day.
Assay [6] addresses Mitogen-activated protein kinase 8 (Homo sapiens) (UniProt P45983). Nature of the assay: Inhibition of JNK1 (unknown origin) at 1 uM relative to control.
Assay [7] relates to Mus musculus. Nature of the assay: Anti-inflammatory activity in imiquimod-induced BALB/c mouse psoriasis model assessed as decrease in clinical sign of psoriasis in skin at TOP administration, 2 % applied for 7 days. The format is functional, organism-based. Particulars: time 7.0 day.
In assay [8] the target is Tyrosine-protein kinase SYK (Homo sapiens, UniProt P43405). Nature of the assay: Inhibition of SYK (unknown origin) using ULight-TK peptide as substrate incubated for 120 mins in presence of ATP by Lance Ultra Kinase assay.

Activity calls are given as the source filed them. No cut-off for these calls is given here.

Mitogen-activated protein kinase 8 (Homo sapiens), sequence (P45983 whole entry): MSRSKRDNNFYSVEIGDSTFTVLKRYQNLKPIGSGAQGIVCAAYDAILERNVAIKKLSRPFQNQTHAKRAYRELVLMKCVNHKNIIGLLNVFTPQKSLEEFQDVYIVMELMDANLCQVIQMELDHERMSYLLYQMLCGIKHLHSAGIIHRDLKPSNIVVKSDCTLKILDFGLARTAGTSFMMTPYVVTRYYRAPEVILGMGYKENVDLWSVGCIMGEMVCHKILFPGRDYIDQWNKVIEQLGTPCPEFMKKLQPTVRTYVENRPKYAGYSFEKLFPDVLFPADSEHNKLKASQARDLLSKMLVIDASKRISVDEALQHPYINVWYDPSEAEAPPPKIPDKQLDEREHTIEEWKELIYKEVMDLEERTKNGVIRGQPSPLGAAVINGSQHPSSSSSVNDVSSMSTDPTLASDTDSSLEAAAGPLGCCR

Regarding `C=CC(=O)Nc1cc(CNc2nc(Nc3ccc(N4CCOCC4)c(OC)c3)c(C(N)=O)c3nccn23)ccc1Cl`, the result with Splenocyte [1], in the assay with Mus musculus [5] and in the assay with Mus musculus [7] was Active. The values for the 50% inhibitory concentration (IC50) (with Splenocyte [2]; in assay [3]; in assay [8]) were 0.064 µM, 0.0146 µM and 1.16 µM, respectively. The inhibition in assay [4] is 98.3%; in assay [6], more than 90%.

The values above are taken from ChEMBL document CHEMBL5365427, “Discovery and Structural Optimization of Covalent ZAP-70 Kinase Inhibitors against Psoriasis” (J Med Chem, 2023).
